Experimental data published in patent US20190142810A1, “MITOCHONDRIAL INHIBITORS FOR THE TREATMENT OF PROLIFERATION DISORDERS” (Basilea Pharmaceutica International AG, priority 2016, published 2019).

system: HeLa galactose cells; assay: Cell growth and proliferation assay of HeLa galactose cells (crystal violet); type: cell-based; conditions: 72 hours incubation, crystal violet staining, absorbance at 590 nm
Description: The cervical tumor cell line HeLa (ATCC, CCL-2) was cultivated in DMEM medium (Invitrogen cat. no. 11971, 4.5 g/L high glucose) containing 10% fetal calf serum (Sigma cat. no. F9665) and 1% Penicillin/Streptomycin (Sigma cat. no. P0781) at 37° C. in 5% CO2. HeLa galactose cells (i.e. HeLa cells that grow in high concentrations of galactose) were generated from HeLa glucose cells (i.e. HeLa cells that grow in high concentrations of glucose) by gradually changing the amount of glucose in the media to zero glucose in the presence of galactose as a sugar source (50% galactose/50% glucose media for one week, then 75% galactose/25% glucose media for one week, to 100% galactose media in the third week). Galactose media (Invitrogen cat. no. 11966) was supplemented with 10 mM galactose (Sigma cat. no. G5388).
Cell Growth and Proliferation Assay of HeLa Galactose and Glucose Cells
HeLa galactose cells and HeLa glucose cells were seeded in 96 well plates (TPP, cat. no 92696) at 2000 and 1500 cells/well, respectively, in 100 μL of complete medium. After overnight incubation the cells were incubated for 72 hours in complete medium containing 0.001% DMSO or compounds (final concentration of DMSO 0.001%). After the medium was removed, cells were fixed and stained by adding 50 μL crystal violet staining (0.2% crystal violet (Sigma-Aldrich cat. no. C0775) in 50% methanol) per well. The plates were incubated for 1 hour at room temperature. Subsequently the stain was decanted and plates were washed 4 times with de-mineralized water. Plates were air-dried for 2 hours. The stain was dissolved by adding 100 μL buffer (0.1 M Tris pH 7.5, 0.2% SDS, 20% ethanol) per well and shaking the plates. Absorbance at 590 nm was measured using a SpectraMax® 250 plate reader (Molecular Devices). Antiproliferative/growth inhibition IC50s were calculated from concentration-response curves using GraphPad Prism software.

Compound COCC1CN(C(=O)Nc2nc(C)ns2)CC/C1=C/c1ccc(Cl)cc1F (stereo not drawn) [Example 133] has an IC50 of 100 nM.
In the case of COCC1CN(C(=O)Nc2nc(C)ns2)CC/C1=C/c1ccc(Cl)cc1F (stereo not drawn) [Example 130, (4Z)-4-[(4-chloro-2-fluoro-phenyl)methylene]-3-(methoxymethyl)-N-(3-methyl-1,2,4-thiadiazol-5-yl)piperidine-1-carboxamide], the IC50 is reported as 355 nM.

same assay, conditions: Homo sapiens, HeLa, 72 h, 72 hours incubation, crystal violet staining, absorbance at 590 nm

Going from Cc1cc(NC(=O)N2CCC(C(=O)c3ccc(N(C)C)cc3F)CC2)ccn1 [Example 156] to Cc1cc(NC(=O)N2CCC(C(=O)c3ccc(C#N)cc3F)CC2)ccn1 [Example 172], the IC50 falls from 193 nM to 126 nM (1.5-fold).

CC(=O)NCCN(C)c1ccc(C=C2CCN(C(=O)Nc3nc(C)ns3)CC2)c(F)c1 [Example 123, 4-[[4-[2-acetamidoethyl(methyl)amino]-2-fluoro-phenyl]methylene]-N-(3-methyl-1,2,4-thiadiazol-5-yl)piperidine-1-carboxamide] and Cc1nsc(NC(=O)N2CCC(=Cc3ccc(N(C)CCN)cc3F)CC2)n1 [Example 122, 4-[[4-[2-aminoethyl(methyl)amino]-2-fluoro-phenyl]methylene]-N-(3-methyl-1,2,4-thiadiazol-5-yl)piperidine-1-carboxamide] are within 1.5-fold of each other in IC50: 245 nM for the first, 182 nM for the second.

Compared with Cc1cc(NC(=O)N2CCC(=Cc3ccc(N(C)C)cc3F)CC2)ccn1 [Example 132], Nc1cc(NC(=O)N2CCC(=Cc3ccc(Cl)cc3F)CC2)ccn1 [Example 131] is 3.5-fold higher in IC50: 76 nM for the first, 264 nM for the second. The first is the more potent here.

Cc1nsc(NC(=O)N2CCC(C(C)c3ccc(Cl)cc3F)CC2)n1 (stereo not drawn) [Example 105] and CC(=C1CCN(C(=O)Nc2nc(C)ns2)CC1)c1ccc(Cl)cc1F [Example 104] are within 1.5-fold of each other in IC50: 482 nM for the first, 642 nM for the second.

Cc1nsc(NC(=O)N2CCC(=Cc3ccc(CNCCCN4CCOCC4)cc3F)CC2)n1 [Example 91] and Cc1nsc(NC(=O)N2CCC(=Cc3ccc(CN(C)CCO)cc3F)CC2)n1 [Example 90, 4-[[2-fluoro-4-[[2-hydroxyethyl(methyl)amino]methyl]phenyl]methylene]-N-(3-methyl-1,2,4-thiadiazol-5-yl)piperidine-1-carboxamide] are within 1.5-fold of each other in IC50: 492 nM for the first, 693 nM for the second.

First: Cc1nsc(NC(=O)N2CCC(=Cc3ccc(C#CCO)cc3F)CC2)n1 [Example 170, 4-[[2-fluoro-4-(3-hydroxyprop-1-ynyl)phenyl]methylene]-N-(3-methyl-1,2,4-thiadiazol-5-yl)piperidine-1-carboxamide]
Second: Cc1nsc(NC(=O)N2CCC(=Cc3ccc(N)cc3F)CC2)n1 [Example 119, 4-[(4-amino-2-fluoro-phenyl)methylene]-N-(3-methyl-1,2,4-thiadiazol-5-yl)piperidine-1-carboxamide]
The IC50 of the first is 2.6-fold higher: 415 nM for the first, 159 nM for the second.

Cc1nsc(NC(=O)N2CCC(Oc3ccc(F)cc3)CC2)n1 [Example 73] and COc1ccc(CC2CCN(C(=O)Nc3nc(C)ns3)CC2)c(N)c1 [Example 23] are within 1.5-fold of each other in IC50: 465 nM for the first, 356 nM for the second.

Going from Cc1nsc(NC(=O)N2CCCC(Cc3ccc(N(C)C)cc3F)CC2)n1 (stereo not drawn) [Example 126] to Cc1nsc(NC(=O)N2CCC(C(=O)c3ccc(N(C)C)cc3F)CC2)n1 [Example 155, 4-[4-(dimethylamino)-2-fluoro-benzoyl]-N-(3-methyl-1,2,4-thiadiazol-5-yl)piperidine-1-carboxamide], the IC50 rises from 68 nM to 149 nM (2.2-fold).

Cc1nsc(NC(=O)N2CCC(Cc3ccc(CN4CCOCC4)cc3)CC2)n1 [Example 34, N-(3-methyl-1,2,4-thiadiazol-5-yl)-4-[[4-(morpholinomethyl)phenyl]methyl]piperidine-1-carboxamide] and Cc1nsc(NC(=O)N2CCC(Cc3ccc(N4CCCC4)cc3F)CC2)n1 [Example 44] are within 1.5-fold of each other in IC50: 572 nM for the first, 429 nM for the second.

Cc1nsc(NC(=O)N2CCC(=Cc3c(F)cc(O)cc3F)CC2)n1 [Example 99, 4-[(2,6-difluoro-4-hydroxy-phenyl)methylene]-N-(3-methyl-1,2,4-thiadiazol-5-yl)piperidine-1-carboxamide] and CCN(CC)c1cc(F)c(C=C2CCN(C(=O)Nc3nc(C)ns3)CC2)c(F)c1 [Example 159] are within 1.5-fold of each other in IC50: 307 nM for the first, 215 nM for the second.

Compared with Cc1nsc(NC(=O)N2CCCC(=Cc3ccc(N(C)C)cc3F)CC2)n1 [Example 125], Cc1nsc(NC(=O)N2CCC(=Cc3ccc(OCCCN)cc3F)CC2)n1 [Example 111] is 8.2-fold higher in IC50: 63 nM for the first, 514 nM for the second.

Cc1nsc(NC(=O)N2CCC(=Cc3ccc(N4CCCC4)cc3)CC2)n1 [Example 43] and Cc1nsc(NC(=O)N2CCC(=Cc3ccc(OCCCO)cc3F)CC2)n1 [Example 107, 4-[[2-fluoro-4-(3-hydroxypropoxy)phenyl]methylene]-N-(3-methyl-1,2,4-thiadiazol-5-yl)piperidine-1-carboxamide] are within 1.5-fold of each other in IC50: 439 nM for the first, 389 nM for the second.

First: Cc1cc(NC(=O)N2CCC(C(=O)c3c(F)cc(C#N)cc3F)CC2)ccn1 [Example 174]
Second: Cc1nsc(NC(=O)N2CCC(C(=O)c3ccc(C(F)(F)F)cc3F)CC2)n1 [Example 142, 4-[2-fluoro-4-(trifluoromethyl)benzoyl]-N-(3-methyl-1,2,4-thiadiazol-5-yl)piperidine-1-carboxamide]
The IC50 of the first is 1.9-fold higher: 160 nM for the first, 86 nM for the second.

First: N#CCc1cc(NC(=O)N2CCC(=Cc3ccc(Cl)cc3F)CC2)ccn1 [Example 178, 4-[(4-chloro-2-fluoro-phenyl)methylene]-N-[2-(cyanomethyl)-4-pyridyl]piperidine-1-carboxamide]
Second: O=C(Nc1ccnc(CO)c1)N1CCC(=Cc2ccc(Cl)cc2F)CC1 [Example 177, 4-[(4-chloro-2-fluoro-phenyl)methylene]-N-[2-(hydroxymethyl)-4-pyridyl]piperidine-1-carboxamide]
The IC50 of the first is 1.6-fold higher: 155 nM for the first, 96 nM for the second. The second is the more potent here.

First: NCc1cc(NC(=O)N2CCC(=Cc3c(F)cc(Cl)cc3F)CC2)ccn1 [Example 180, N-[2-(aminomethyl)-4-pyridyl]-4-[(4-chloro-2,6-difluoro-phenyl)methylene]piperidine-1-carboxamide]
Second: NC(=O)Cc1nsc(NC(=O)N2CCC(=Cc3ccc(Cl)cc3F)CC2)n1 [Example 81, N-[3-(2-amino-2-oxo-ethyl)-1,2,4-thiadiazol-5-yl]-4-[(4-chloro-2-fluoro-phenyl)methylene]piperidine-1-carboxamide]
The IC50 of the first is 2.7-fold lower: 330 nM for the first, 888 nM for the second. The first is the more potent here.

Compared with O=C(Nc1ccncn1)N1CCC(Cc2ccc(Cl)cc2Cl)CC1 [Example 22, 4-[(2,4-dichlorophenyl)methyl]-N-pyrimidin-4-yl-piperidine-1-carboxamide], Cc1cc(NC(=O)N2CCC(Cc3ccc(Cl)cc3F)CC2)cnn1 [Example 165] is 2.2-fold lower in IC50: 837 nM for the first, 383 nM for the second. The second is the more potent here.

COCCC1CN(C(=O)Nc2nc(C)ns2)CC/C1=C/c1ccc(Cl)cc1F (stereo not drawn) [Example 134, (4Z)-4-[(4-chloro-2-fluoro-phenyl)methylene]-3-(2-methoxyethyl)-N-(3-methyl-1,2,4-thiadiazol-5-yl)piperidine-1-carboxamide] and Cc1nsc(NC(=O)N2CCC(=Cc3ccc(Cl)cc3F)C(F)C2)n1 (stereo not drawn) [Example 106] are within 1.5-fold of each other in IC50: 449 nM for the first, 467 nM for the second.

First: Cc1nsc(NC(=O)N2CCC(Cc3ccc(OCC(C)C)cc3F)CC2)n1 [Example 31]
Second: CNc1nsc(NC(=O)N2CCC(Cc3ccc(Cl)cc3F)CC2)n1 [Example 166, 4-[(4-chloro-2-fluoro-phenyl)methyl]-N-[3-(methylamino)-1,2,4-thiadiazol-5-yl]piperidine-1-carboxamide]
The IC50 of the first is 2-fold higher: 795 nM for the first, 407 nM for the second.

Compound Cc1nsc(NC(=O)N2CC/C(=C\c3c(F)cc(Cl)cc3F)CC2(C)C)n1 [Example 168] has an IC50 of 280 nM.
